The nature of this data set: solvent given as SMILES.

As for `COc1ccc(C#Cc2ccc(C#N)cc2)cc1`, the fluorescence lifetime by setting is: (in C1COCCO1) 0.33 ns; (in CC#N) 0.76 ns; (in CCCCCC) 0.34 ns; (in CCCCCCC) 0.35 ns; (in CCCO) 0.6 ns; (in CCOC(C)=O) 0.38 ns. Moreover, the fluorescence lifetime amounted to 1.1 ns (in CS(C)=O), 0.38 ns (in ClC(Cl)Cl) and 0.46 ns (in ClCCl).

`c1ccc(-c2nc(-c3ccc(-c4nc(-c5ccccc5)c(-c5ccccc5)[nH]4)cc3)[nH]c2-c2ccccc2)cc1` had a fluorescence lifetime (in CC#N) of 1.11 ns and a fluorescence lifetime (in CS(C)=O) of 1.05 ns.

`c1ccc(-c2ccc(-c3ccc(-c4cc(-c5ccc(-c6ccc(-c7ccccc7)cc6)cc5)cc(-c5ccc(-c6ccc(-c7ccccc7)cc6)cc5)c4)cc3)cc2)cc1` displayed a fluorescence lifetime (in C1COCCO1) of 1.05 ns.

Turning to `COC(=O)c1cc(=O)n(C)c2cc(-c3ccccc3N(C)C)sc12`, the fluorescence lifetime (in ClCCl) turned out to be 1.23 ns.

Consider `CCCCCC(=O)c1c2c(c(C(=O)CCCCC)c3c1OC1(CCCC1)O3)OC1(CCCC1)O2`, for which the fluorescence lifetime amounted to 20.3 ns (in CC#N); 15.3 ns (in CCCCCC); 11.6 ns (in CCO); 5.9 ns (in CO); 24.4 ns (in ClCCl).

`Cc1ccc(C2=C3C=CC(c4ccccc4)=[N+]3[B-](F)(F)n3c2ccc3-c2ccccc2)cc1`: the fluorescence lifetime is 1.56 ns (in C1CCCCC1); 1.4 ns (in C1CCOC1); 1.59 ns (in C1COCCO1); 1.37 ns (in CCOC(C)=O); 1.22 ns (in CO); 2.17 ns (in Cc1ccccc1). For the setting “in ClC(Cl)Cl”, the fluorescence lifetime came out at 1.97 ns.

`CCCCCCC(CCCCCC)N1C(=O)c2cccc3c(-c4ccc(-c5ccc(OC)cc5)cc4)ccc(c23)C1=O` displayed a fluorescence lifetime (in CCCCCC) of 1.35 ns; a fluorescence lifetime (in CCCCCCCCCCCCCC) of 1.43 ns; a fluorescence lifetime (in CCCCCCCCCCCO) of 3.21 ns; a fluorescence lifetime (in CCCCO) of 1.05 ns; a fluorescence lifetime (in CN(C)C=O) of 1.91 ns; a fluorescence lifetime (in Cc1ccccc1) of 1.4 ns. Where the note is “in ClC(Cl)Cl”, this molecule yielded a fluorescence lifetime of 2.93 ns.

`NNC(=O)N1C(=O)c2cc(S(=O)(=O)[O-])cc3c(N)c(S(=O)(=O)[O-])cc(c23)C1=O` showed a fluorescence lifetime (in O) of 5.7 ns.

In turn, `CCCCCCCCCCCCN1C(=O)c2ccc3c4ccc5c6c(ccc(c7ccc(c2c37)C1=O)c64)C(=O)NC5=O` returned a fluorescence lifetime (in CN(C)C=O) of 3 ns.

For the molecule `CCCCC#Cc1cccc2cc(CCCC)c3cc(-c4cc[b-]5c(c4)c(CCCC)cc4cccc(C#CCCCC)[n+]54)cc[b-]3[n+]12`, the fluorescence lifetime (in C1CCCCC1) was 4 ns.

For the molecule `CCOC(=O)CCCCCn1c2ccc(C)cc2c(=O)c2cc3c(cc21)c(=O)c1cc(C)ccc1n3CCCCCC(=O)OCC`, the fluorescence lifetime (in CO) amounted to 22 ns.

With `O=Cc1ccc(C#CC(C#Cc2ccc(C=O)o2)=Cc2ccc(C=C(C#Cc3ccc(C=O)o3)C#Cc3ccc(C=O)o3)s2)o1`, the fluorescence lifetime (in ClC(Cl)Cl) is 0.4 ns.

For the molecule `CC(C)(C)c1ccc2c(c1)c1cc(C(C)(C)C)ccc1n2-c1cccc2c1Oc1c(-c3nc(-c4ccccc4)nc(-c4ccccc4)n3)cccc1C2(C)C`, for the setting “in Cc1ccccc1”, the fluorescence lifetime was found to be 4 ns.

Molecule `CCC1=C(C)C2=C(C)c3cc(I)c(I)n3[B-](F)(F)[N+]2=C1C` had a fluorescence lifetime (in C1CCCCC1) of 1.02 ns; a fluorescence lifetime (in CC(C)=O) of 0.82 ns; a fluorescence lifetime (in CCO) of 0.939 ns; a fluorescence lifetime (in CCOC(C)=O) of 0.893 ns; a fluorescence lifetime (in CO) of 0.882 ns; a fluorescence lifetime (in OCC(F)(F)F) of 0.779 ns.

As for `Nc1nc2ccc(Br)cc2s1`, the fluorescence lifetime runs as follows: (in CC#N) 1.91 ns; (in ClCCl) 1.37 ns.

Consider `CC1(C)c2ccccc2N(c2ccc3c(c2)c2cc(N4c5ccccc5C(C)(C)c5ccccc54)ccc2c2nc(C#N)c(C#N)nc32)c2ccccc21`, for which the fluorescence lifetime (in O=P(c1ccccc1)(c1ccccc1)c1cccc(-c2cc(-n3c4ccccc4c4ccccc43)cc(-n3c4ccccc4c4ccccc43)c2)n1) is 53.7 ns.

For `c1ccc2c(c1)c1ccccc1c1[nH]c(-c3ccc(-c4nc5c6ccccc6c6ccccc6c5[nH]4)cc3)nc21`, the fluorescence lifetime (in CS(C)=O) came to 1.25 ns.

The values are drawn from the Deep4Chem optical property database.
